Source: ChEMBL document CHEMBL1144565, “Anti-breast cancer activity of LFM-A13, a potent inhibitor of Polo-like kinase (PLK)” (Bioorg Med Chem, 2007)
Calls of active or inactive are those of the source. The calls are words filed in the database; no cut-off is given here.

How the values were obtained:
[1] = target: Hepatocyte growth factor receptor (Homo sapiens, UniProt P08581); assay: Inhibition of Met kinase
[2] = target: Tyrosine-protein kinase Fyn (Homo sapiens, UniProt P06241); assay: Inhibition of FYN kinase
[3] = system: U-373MG ATCC; assay: Induction of aberrant monopolar and multipolar spindle formation in human U373 cells at 100 uM; type: functional, cell-based
[4] = target: Inhibitor of NF-kappa-B kinase (IKK) (Homo sapiens, UniProt O14920+O15111+Q9Y6K9); assay: Inhibition of IKK; type: protein-complex assay
[5] = system: Rattus norvegicus; assay: Toxicity in Lewis rat assessed as myeloid or lymphoid hyperplasia in bone marrow at 80 mg/kg, iV after 7 days; type: organism-based; design: dose 80 mg/kg, route intravenous; details: in vivo, 168 h
[6] = target: Serine/threonine-protein kinase PLK1 (Xenopus laevis, UniProt P70032); assay: Inhibition of xenopus recombinant Plx1 expressed in Sf21 cells by measuring autophosphorylation by 15-mins kinase assay; type: functional
Serine/threonine-protein kinase PLK1, sequence (P70032 whole entry): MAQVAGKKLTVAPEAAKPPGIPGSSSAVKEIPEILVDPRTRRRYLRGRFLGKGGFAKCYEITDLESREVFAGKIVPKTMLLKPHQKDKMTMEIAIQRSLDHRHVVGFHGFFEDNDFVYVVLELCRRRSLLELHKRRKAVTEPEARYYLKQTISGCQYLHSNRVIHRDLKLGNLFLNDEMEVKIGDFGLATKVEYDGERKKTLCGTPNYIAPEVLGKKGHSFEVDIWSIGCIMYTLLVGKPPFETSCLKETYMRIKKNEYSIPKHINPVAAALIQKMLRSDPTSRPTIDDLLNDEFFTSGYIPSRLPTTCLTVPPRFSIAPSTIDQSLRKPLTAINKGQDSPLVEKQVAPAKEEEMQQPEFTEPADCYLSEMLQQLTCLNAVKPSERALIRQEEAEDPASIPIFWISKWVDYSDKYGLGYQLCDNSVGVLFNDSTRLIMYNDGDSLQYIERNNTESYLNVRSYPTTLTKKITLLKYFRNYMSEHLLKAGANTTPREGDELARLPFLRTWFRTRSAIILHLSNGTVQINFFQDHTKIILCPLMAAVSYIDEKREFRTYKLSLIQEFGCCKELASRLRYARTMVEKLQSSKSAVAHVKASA

[7] = system: Mus musculus; assay: Acute toxicity in CD1 mouse assessed as absolute neutrophil counts at 20 mg/kg, ip after 7 days; type: organism-based; design: dose 20 mg/kg, route intraperitoneal; details: in vivo, 168 h
[8] = target: T1, Serine/threonine-protein kinase PLK3 (Homo sapiens, UniProt Q9H4B4); assay: Inhibition of human PLK3 in presence of 100 uM ATP
T1 sequence (Q9H4B4 whole entry): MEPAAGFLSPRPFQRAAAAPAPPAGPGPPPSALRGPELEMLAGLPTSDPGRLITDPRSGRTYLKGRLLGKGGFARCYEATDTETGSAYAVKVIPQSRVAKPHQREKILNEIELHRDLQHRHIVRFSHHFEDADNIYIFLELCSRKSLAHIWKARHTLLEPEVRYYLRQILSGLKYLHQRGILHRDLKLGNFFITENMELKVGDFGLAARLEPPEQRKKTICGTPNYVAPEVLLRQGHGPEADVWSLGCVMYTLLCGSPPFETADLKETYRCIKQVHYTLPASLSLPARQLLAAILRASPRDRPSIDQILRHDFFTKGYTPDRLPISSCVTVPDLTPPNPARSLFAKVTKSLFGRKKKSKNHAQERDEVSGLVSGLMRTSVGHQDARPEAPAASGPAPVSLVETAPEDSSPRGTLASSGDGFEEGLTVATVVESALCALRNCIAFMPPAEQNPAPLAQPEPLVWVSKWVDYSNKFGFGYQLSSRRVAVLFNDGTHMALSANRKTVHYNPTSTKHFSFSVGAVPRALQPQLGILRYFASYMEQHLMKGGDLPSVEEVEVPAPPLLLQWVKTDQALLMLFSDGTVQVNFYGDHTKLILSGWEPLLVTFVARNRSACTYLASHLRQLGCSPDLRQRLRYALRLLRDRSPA

[9] = target: T1, Serine/threonine-protein kinase PLK3; assay: Inhibition of human PLK3 in presence of 50 uM ATP
[10] = system: Mus musculus; assay: Effect on non-proliferating tissue in po dosed BALB/c mouse assessed as toxic lesions in lung; type: ADME, organism-based; details: in vivo
[11] = target: Phosphatidylinositol 4,5-bisphosphate 3-kinase catalytic subunit gamma isoform (Homo sapiens, UniProt P48736); assay: Inhibition of PI3Kgamma
[12] = system: Mus musculus; assay: Acute toxicity in CD1 mouse assessed as absolute lymphocyte counts at 20 mg/kg, ip after 7 days; type: organism-based; design: dose 20 mg/kg, route intraperitoneal; details: in vivo, 168 h
[13] = target: Tyrosine-protein kinase Yes (Homo sapiens, UniProt P07947); assay: Inhibition of YES kinase
Tyrosine-protein kinase Yes, sequence (P07947 whole entry): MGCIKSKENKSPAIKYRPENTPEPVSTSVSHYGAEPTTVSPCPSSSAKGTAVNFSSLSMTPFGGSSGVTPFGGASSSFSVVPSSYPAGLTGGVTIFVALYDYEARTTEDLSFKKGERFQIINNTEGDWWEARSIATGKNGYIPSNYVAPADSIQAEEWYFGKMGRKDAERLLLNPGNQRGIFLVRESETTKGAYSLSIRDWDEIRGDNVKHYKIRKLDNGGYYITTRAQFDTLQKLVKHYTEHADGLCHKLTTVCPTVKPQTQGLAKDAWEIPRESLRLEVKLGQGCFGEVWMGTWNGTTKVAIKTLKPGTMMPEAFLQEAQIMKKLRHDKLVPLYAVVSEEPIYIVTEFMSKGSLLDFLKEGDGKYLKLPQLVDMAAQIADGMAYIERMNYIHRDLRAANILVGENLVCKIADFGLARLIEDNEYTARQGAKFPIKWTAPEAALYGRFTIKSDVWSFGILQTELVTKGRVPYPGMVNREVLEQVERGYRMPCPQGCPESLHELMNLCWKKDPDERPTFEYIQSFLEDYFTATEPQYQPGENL

[14] = system: Mus musculus; assay: Acute toxicity in CD1 mouse assessed as myeloid or lymphoid hyperplasia in bone marrow at 40 mg/kg, ip after 7 days; type: organism-based; design: dose 40 mg/kg, route intraperitoneal; details: in vivo, 168 h
[15] = system: Mus musculus; assay: Toxicity in daily po dosed BALB/c mouse; type: organism-based; details: in vivo
[16] = target: Cyclin-dependent kinase 1 (Homo sapiens, UniProt P06493); assay: Inhibition of CDK1
Cyclin-dependent kinase 1, sequence (P06493 whole entry): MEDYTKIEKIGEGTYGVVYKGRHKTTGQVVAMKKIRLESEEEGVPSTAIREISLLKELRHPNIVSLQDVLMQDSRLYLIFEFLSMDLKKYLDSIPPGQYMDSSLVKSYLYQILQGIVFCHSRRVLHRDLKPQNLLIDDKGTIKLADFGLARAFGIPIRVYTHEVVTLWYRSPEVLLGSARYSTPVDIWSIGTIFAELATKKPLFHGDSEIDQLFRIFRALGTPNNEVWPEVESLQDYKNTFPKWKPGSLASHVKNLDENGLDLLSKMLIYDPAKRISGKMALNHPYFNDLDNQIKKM

[17] = target: Mitogen-activated protein kinase 1 (Homo sapiens, UniProt P28482); assay: Inhibition of MAPK1
[18] = system: Mus musculus; assay: Acute toxicity in CD1 mouse assessed as absolute neutrophil counts at 80 mg/kg, ip after 7 days; type: organism-based; design: dose 80 mg/kg, route intraperitoneal; details: in vivo, 168 h
[19] = target: Tyrosine-protein kinase JAK2 (Homo sapiens, UniProt O60674); assay: Inhibition of JAK2
Tyrosine-protein kinase JAK2, sequence (O60674 whole entry): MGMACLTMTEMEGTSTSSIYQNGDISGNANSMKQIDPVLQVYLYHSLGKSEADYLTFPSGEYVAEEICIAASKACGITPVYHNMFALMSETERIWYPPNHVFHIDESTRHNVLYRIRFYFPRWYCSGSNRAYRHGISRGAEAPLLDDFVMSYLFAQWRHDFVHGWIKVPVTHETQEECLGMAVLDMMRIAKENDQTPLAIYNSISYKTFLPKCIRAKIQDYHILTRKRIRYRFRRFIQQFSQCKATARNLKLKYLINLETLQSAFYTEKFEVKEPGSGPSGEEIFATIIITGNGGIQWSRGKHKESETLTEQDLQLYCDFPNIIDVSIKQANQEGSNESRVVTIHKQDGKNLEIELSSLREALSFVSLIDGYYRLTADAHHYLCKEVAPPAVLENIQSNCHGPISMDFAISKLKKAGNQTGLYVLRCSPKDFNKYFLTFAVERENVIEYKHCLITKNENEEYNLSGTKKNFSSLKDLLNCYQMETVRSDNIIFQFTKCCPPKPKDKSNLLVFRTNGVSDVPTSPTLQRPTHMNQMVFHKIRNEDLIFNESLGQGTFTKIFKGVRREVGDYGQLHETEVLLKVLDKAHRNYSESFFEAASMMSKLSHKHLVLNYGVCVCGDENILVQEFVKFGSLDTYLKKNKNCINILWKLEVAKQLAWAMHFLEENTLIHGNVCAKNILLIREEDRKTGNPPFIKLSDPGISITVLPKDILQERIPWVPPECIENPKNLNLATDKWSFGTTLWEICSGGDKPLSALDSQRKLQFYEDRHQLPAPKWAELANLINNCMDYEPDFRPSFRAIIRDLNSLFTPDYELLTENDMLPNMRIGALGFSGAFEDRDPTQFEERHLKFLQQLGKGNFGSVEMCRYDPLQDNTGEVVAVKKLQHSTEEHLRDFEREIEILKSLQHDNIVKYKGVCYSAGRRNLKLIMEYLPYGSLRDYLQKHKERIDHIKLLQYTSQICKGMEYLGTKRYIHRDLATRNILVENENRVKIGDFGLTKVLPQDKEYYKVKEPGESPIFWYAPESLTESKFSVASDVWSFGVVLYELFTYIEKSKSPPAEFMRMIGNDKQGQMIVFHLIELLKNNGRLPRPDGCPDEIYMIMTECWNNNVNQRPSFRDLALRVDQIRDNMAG

[20] = system: Mus musculus; assay: Toxicity in cumulative po dosed BALB/c mouse; type: organism-based; details: in vivo
[21] = target: Mast/stem cell growth factor receptor Kit (Homo sapiens, UniProt P10721); assay: Inhibition of C-Kit kinase
Mast/stem cell growth factor receptor Kit, sequence (P10721 whole entry): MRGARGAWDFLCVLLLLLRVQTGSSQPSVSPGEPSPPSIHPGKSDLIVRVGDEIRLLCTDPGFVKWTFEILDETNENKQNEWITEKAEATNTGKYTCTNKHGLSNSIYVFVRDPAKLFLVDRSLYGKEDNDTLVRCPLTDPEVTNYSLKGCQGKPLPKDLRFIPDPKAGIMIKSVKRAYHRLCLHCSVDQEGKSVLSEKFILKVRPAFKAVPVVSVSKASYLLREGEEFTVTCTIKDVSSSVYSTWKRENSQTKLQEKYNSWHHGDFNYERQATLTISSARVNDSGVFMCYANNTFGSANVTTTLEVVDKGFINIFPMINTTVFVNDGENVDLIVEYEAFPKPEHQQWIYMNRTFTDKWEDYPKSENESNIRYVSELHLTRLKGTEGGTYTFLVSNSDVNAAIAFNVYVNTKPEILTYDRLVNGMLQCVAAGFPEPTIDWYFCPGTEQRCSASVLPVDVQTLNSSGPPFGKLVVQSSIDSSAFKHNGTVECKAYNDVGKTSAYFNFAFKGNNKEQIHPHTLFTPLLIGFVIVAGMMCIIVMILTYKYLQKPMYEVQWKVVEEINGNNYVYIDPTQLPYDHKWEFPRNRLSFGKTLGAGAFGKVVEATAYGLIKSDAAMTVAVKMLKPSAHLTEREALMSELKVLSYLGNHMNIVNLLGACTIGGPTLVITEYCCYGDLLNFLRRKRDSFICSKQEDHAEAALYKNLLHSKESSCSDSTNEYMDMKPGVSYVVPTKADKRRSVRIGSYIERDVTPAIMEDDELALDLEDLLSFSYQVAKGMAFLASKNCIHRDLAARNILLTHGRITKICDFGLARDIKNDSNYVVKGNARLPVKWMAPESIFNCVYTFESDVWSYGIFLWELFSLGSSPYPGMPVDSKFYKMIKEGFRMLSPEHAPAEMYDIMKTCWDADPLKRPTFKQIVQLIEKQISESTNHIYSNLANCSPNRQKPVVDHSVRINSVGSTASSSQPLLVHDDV

[22] = target: T1, Serine/threonine-protein kinase PLK3; assay: Inhibition of human PLK3 in presence of 75 uM ATP
[23] = system: Mus musculus; assay: Effect on non-proliferating tissue in ip dosed CD1 mouse assessed as toxic lesions in myocardium; type: ADME, organism-based; details: in vivo
[24] = species on record: Danio rerio; assay: Effect on cell division blockade in zebrafish egg assessed as cell fusion and lysis at 500 uM after 60 mins; type: functional, organism-based
[25] = target: T1, Serine/threonine-protein kinase PLK3; assay: Inhibition of human PLK3
[26] = system: Mus musculus; assay: Acute toxicity in CD1 mouse assessed as myeloid or lymphoid hyperplasia in bone marrow at 10 mg/kg, ip after 7 days; type: organism-based; design: dose 10 mg/kg, route intraperitoneal; details: in vivo, 168 h
[27] = system: Mus musculus; assay: Subacute toxicity in CD1 mouse assessed as WBC counts at 10 mg/kg, ip after 30 days; type: organism-based; design: dose 10 mg/kg, route intraperitoneal; details: in vivo, 720 h
[28] = system: Rattus norvegicus; assay: Effect on non-proliferating tissue in iv dosed Lewis rat assessed as toxic lesions in brain on day 7; type: ADME, organism-based; details: in vivo
[29] = system: Mus musculus; assay: Subacute toxicity in CD1 mouse assessed as absolute neutrophil counts at 80 mg/kg, ip after 30 days; type: organism-based; design: dose 80 mg/kg, route intraperitoneal; details: in vivo, 720 h
[30] = system: Mus musculus; assay: Acute toxicity in CD1 mouse assessed as myeloid or lymphoid hyperplasia in bone marrow at 80 mg/kg, ip after 7 days; type: organism-based; design: dose 80 mg/kg, route intraperitoneal; details: in vivo, 168 h
[31] = system: Mus musculus; assay: Acute toxicity in CD1 mouse assessed as WBC counts at 40 mg/kg, ip after 7 days; type: organism-based; design: dose 40 mg/kg, route intraperitoneal; details: in vivo, 168 h
[32] = system: Rattus norvegicus; assay: Toxicity in Lewis rat assessed as absolute lymphocyte counts at 80 mg/kg, iv after 7 days; type: organism-based; design: dose 80 mg/kg, route intravenous; details: in vivo, 168 h
[33] = system: Mus musculus; assay: Effect on non-proliferating tissue in po dosed BALB/c mouse assessed as toxic lesions in kidney; type: ADME, organism-based; details: in vivo
[34] = system: Mus musculus; assay: Subacute toxicity in CD1 mouse assessed as absolute lymphocyte counts at 10 mg/kg, ip after 30 days; type: organism-based; design: dose 10 mg/kg, route intraperitoneal; details: in vivo, 720 h
[35] = target: Serine/threonine-protein kinase Chk1 (Homo sapiens, UniProt O14757); assay: Inhibition of CHK1
Serine/threonine-protein kinase Chk1, sequence (O14757 whole entry): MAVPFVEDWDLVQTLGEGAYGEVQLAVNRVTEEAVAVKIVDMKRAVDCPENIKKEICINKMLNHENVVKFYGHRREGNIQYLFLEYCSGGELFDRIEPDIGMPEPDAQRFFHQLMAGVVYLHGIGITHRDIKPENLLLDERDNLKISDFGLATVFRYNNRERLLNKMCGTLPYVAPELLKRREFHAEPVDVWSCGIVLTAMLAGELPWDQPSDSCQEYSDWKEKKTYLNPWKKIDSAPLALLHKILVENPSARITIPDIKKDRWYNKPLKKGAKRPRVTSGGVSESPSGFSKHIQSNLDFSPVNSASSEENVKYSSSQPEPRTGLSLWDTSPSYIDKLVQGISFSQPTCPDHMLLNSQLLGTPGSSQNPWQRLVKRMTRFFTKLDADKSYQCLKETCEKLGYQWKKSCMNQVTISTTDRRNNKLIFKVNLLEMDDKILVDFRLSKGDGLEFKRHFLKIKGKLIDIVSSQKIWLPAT

[36] = target: Mitogen-activated protein kinase 14 (Homo sapiens, UniProt Q16539); assay: Inhibition of SAPK2a
Mitogen-activated protein kinase 14, sequence (Q16539 whole entry): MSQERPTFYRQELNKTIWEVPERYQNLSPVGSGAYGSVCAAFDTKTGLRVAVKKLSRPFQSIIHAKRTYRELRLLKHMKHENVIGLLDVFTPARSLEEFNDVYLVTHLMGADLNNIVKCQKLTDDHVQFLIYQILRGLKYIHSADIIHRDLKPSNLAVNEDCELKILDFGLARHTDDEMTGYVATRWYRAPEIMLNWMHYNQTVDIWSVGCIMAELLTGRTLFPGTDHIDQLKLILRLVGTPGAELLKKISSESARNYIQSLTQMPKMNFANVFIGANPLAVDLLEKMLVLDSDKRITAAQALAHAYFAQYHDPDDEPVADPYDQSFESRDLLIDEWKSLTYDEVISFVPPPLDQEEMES

[37] = system: Mus musculus; assay: Subacute toxicity in CD1 mouse assessed as absolute neutrophil counts at 20 mg/kg, ip after 30 days; type: organism-based; design: dose 20 mg/kg, route intraperitoneal; details: in vivo, 720 h
[38] = target: T1, Serine/threonine-protein kinase PLK3; assay: Inhibition of human PLK3 in presence of 200 uM ATP
[39] = target: Platelet-derived growth factor receptor (Homo sapiens, UniProt P09619+P16234); assay: Inhibition of PDGFR; type: protein-complex assay
[40] = system: Mus musculus; assay: Subacute toxicity in CD1 mouse assessed as WBC counts at 80 mg/kg, ip after 30 days; type: organism-based; design: dose 80 mg/kg, route intraperitoneal; details: in vivo, 720 h
[41] = system: Mus musculus; assay: Subacute toxicity in CD1 mouse assessed as myeloid or lymphoid hyperplasia in bone marrow at 80 mg/kg, ip after 30 days; type: organism-based; design: dose 80 mg/kg, route intraperitoneal; details: in vivo, 720 h
[42] = system: Mus musculus; assay: Acute toxicity in CD1 mouse assessed as absolute neutrophil counts at 10 mg/kg, ip after 7 days; type: organism-based; design: dose 10 mg/kg, route intraperitoneal; details: in vivo, 168 h
[43] = system: Mus musculus; assay: Effect on non-proliferating tissue in po dosed BALB/c mouse assessed as toxic lesions in myocardium; type: ADME, organism-based; details: in vivo
[44] = system: Mus musculus; assay: Subacute toxicity in CD1 mouse assessed as absolute lymphocyte counts at 20 mg/kg, ip after 30 days; type: organism-based; design: dose 20 mg/kg, route intraperitoneal; details: in vivo, 720 h
[45] = system: Mus musculus; assay: Acute toxicity in CD1 mouse assessed as absolute lymphocyte counts at 10 mg/kg, ip after 7 days; type: organism-based; design: dose 10 mg/kg, route intraperitoneal; details: in vivo, 168 h
[46] = system: Mus musculus; assay: Acute toxicity in CD1 mouse assessed as absolute lymphocyte counts at 80 mg/kg, ip after 7 days; type: organism-based; design: dose 80 mg/kg, route intraperitoneal; details: in vivo, 168 h
[47] = target: T1, Serine/threonine-protein kinase PLK3; assay: Inhibition of human PLK3 in presence of 25 uM ATP

## C/C(O)=C(\C#N)C(=O)Nc1cc(Br)ccc1Br
[1]
  IC50: 215 µM
[2]
  IC50: 240 µM
[3]
  Activity: Active
[4]
  IC50: > 500 µM
[5]
  Activity: Non-toxic
[6]
  IC50: 10.3 µM
[7]
  Activity: 1.4 10^9/L
[8]
  IC50: 125 µM
[9]
  IC50: 79 µM
[10]
  Activity: Non-toxic
[11]
  IC50: > 500 µM
[12]
  Activity: 5.8 10^9/L
[13]
  IC50: > 500 µM
[14]
  Activity: Non-toxic
[15]
  LD10: > 200 mg/kg
[16]
  IC50: > 500 µM
[17]
  IC50: > 500 µM
[18]
  Activity: 1.7 10^9/L
[19]
  IC50: > 500 µM
[20]
  LD10: > 11200 mg/kg
[21]
  IC50: > 500 µM
[22]
  IC50: 120 µM
[23]
  Activity: Non-toxic
[24]
  Activity: Active
[25]
  IC50: 61 µM
[26]
  Activity: Non-toxic
[27]
  Activity: 6 10^9/L
[28]
  Activity: Non-toxic
[29]
  Activity: 1.7 10^9/L
[30]
  Activity: Non-toxic
[31]
  Activity: 7 10^9/L
[32]
  Activity: 9.7 10^9/L
[33]
  Activity: Non-toxic
[34]
  Activity: 4.4 10^9/L
[35]
  IC50: > 500 µM
[36]
  IC50: > 500 µM
[37]
  Activity: 2.2 10^9/L
[38]
  IC50: 262 µM
[39]
  IC50: > 500 µM
[40]
  Activity: 6.1 10^9/L
[41]
  Activity: Non-toxic
[42]
  Activity: 1.3 10^9/L
[43]
  Activity: Non-toxic
[44]
  Activity: 3.9 10^9/L
[45]
  Activity: 5.4 10^9/L
[46]
  Activity: 4.6 10^9/L
[47]
  IC50: 61 µM
